Data published in patent EP4810054A1, “NECROPTOSIS CONTROL AGENT” (The University of Tokyo, priority 2023, dated 2025).

Columns and labels:
MSP-1 neurons [1] = assay: P-MLKL immunostaining (necroptosis) of MSP-1 neurons treated with culture supernatant of TNF-α-treated astrocytes; assay type: cell-based, mouse
Description: (§1) To obtain differentiated astrocytes, the above MSP-1 cells were harvested and cultured overnight in the MSP-1 proliferation medium on new dishes. The next day, for differentiation into astrocytes, the cells were cultured in serum-free DMEM/F12 medium containing N-2 supplement (R&D Systems), leukemia inhibitory factor (LIF, 10 ng/ml, Fujifilm Wako Pure Chemical Industries), and ciliary neurotrophic factor (CNTF, 10 ng/ml, Fujifilm Wako Pure Chemical Industries). For differentiation into neurons, the cells were cultured in serum-free DMEM/F12 medium containing only N-2 supplement. These media are referred to as MSP-1 differentiation media. Each medium was replaced with fresh medium every 2 days. For differentiation into astrocytes, in particular, on […], the cells were exposed to tumor necrosis factor-α (TNF-α, 100 ng/ml, Fujifilm Wako Pure Chemical Industries) for 24 hours. In the anserine treatment group, the cells were pretreated with L-anserine nitrate (Fujifilm Wako Pure Chemical Industries) for 2 hours prior to the exposure to TNF-α.
The harvested MSP-1 cells were cultured in the MSP-1 differentiation medium on poly-L-lysine/fibronectin-coated chamber glass (4-well, Watson) and differentiated into astrocytes. After the TNF-α treatment, the cells were fixed with 4% PFA for 10 minutes and washed with TBS for 10 minutes. Subsequently, the cells were blocked with 5% BSA diluted in 0.05% TBS-X at room temperature for 60 minutes, then incubated overnight at 4°C in a blocking solution containing primary antibodies. The primary antibodies used in this study were anti-GFAP (mouse, 1:1000, Sigma), anti-NeuN (mouse, 1:1000, Millipore), anti-NF-κB p65 (rabbit, 1:500, CST), and anti-P-MLKL (rabbit, 1:2000, Abcam). The cells were then washed three times with TBS for 5 minutes each, and incubated with secondary antibodies at room temperature for 2 hours. The secondary antibodies used in this study were anti-mouse IgG donkey Alexa 488 (1:1000, Molecular Probes) and anti-rabbit IgG donkey Alexa 568 (1:1000, Molecular Probes). After washing with TBS for 5 minutes, the sections were incubated with DAPI (1:10,000, Sigma) in TBS for 5 minutes, and then washed with TBS 2 times for 5 minutes each. The cells were visualized using a confocal microscope (FV3000-L4EN-TN21, Olympus).
(§2) To obtain differentiated astrocytes, the MSP-1 cells were harvested and cultured overnight in the MSP-1 proliferation medium on new dishes. The next day, the medium was replaced with serum-free DMEM/F12 medium containing N-2 supplement (R&D Systems), leukemia inhibitory factor (LIF, 10 ng/ml, Wako), and ciliary neurotrophic factor (CNTF, 10 ng/ml, Wako). This medium was referred to as astrocyte differentiation medium. The culture medium was replaced with fresh medium every 2 or 3 days. […]

[2] = tested on: C3, Ccl2, Cxcl1, and iNOS; assay: Real-time PCR of inflammatory factor genes in TNF-α-treated MSP-1 astrocytes; assay type: cell-based, mouse
Description: as §2, with “days. On day 5, the cells were exposed to tumor necrosis factor-α (TNF-α, 100 ng/ml, Wako) for 24 hours. For anserine treatment group, the cells were pretreated with L-anserine (Toronto Research Chemicals) for 2 hours prior to the exposure to TNF-α. To obtain differentiated neurons, the culture medium for MSP-1 cells was replaced with the serum-free DMEM/F12 medium containing N-2 supplement. This medium was referred to as neuron differentiation medium. The culture medium was replaced with fresh medium every 2 days.” for “days.”
Reverse transcription reactions for cDNA synthesis were performed on the isolated RNA samples (500 ng) using SuperScript™ III Reverse Transcriptase (Thermo Fisher) according to the manufacturer's instructions. […] Analysis was performed by the 2-ΔΔ-Ct method, and the results are expressed as fold changes. […]

MSP-1 neurons [3] = assay: P-RIPK1 immunostaining of MSP-1 neurons treated with astrocyte culture medium; assay type: cell-based, mouse; conditions: MSP-1 neurons treated with anserine CM
Description: as §2, with “days. On day 5, the cells were exposed to tumor necrosis factor-α (TNF-α, 100 ng/ml, Wako) for 24 hours. For anserine treatment group, the cells were pretreated with L-anserine (Toronto Research Chemicals) for 2 hours prior to the exposure to TNF-α.” for “days.”
(§3) The cells were cultured on poly-L-lysine/fibronectin-coated chamber glass (4-well or 8-well, Watson) containing the respective MSP-1 differentiation media to induce differentiation into astrocytes or neurons. […] The images were analyzed and quantified using ImageJ.
(§4) Microscopic images were analyzed using the ImageJ software. For AT8, P-RIPK1, and P-MLKL staining, staining intensity was calculated. […] For P-P65 staining, only the staining intensity in the nucleus was calculated, and the data are presented as relative intensity ± S.E.M. for each group. At least 100 cells for each group were analyzed from at least 10 random images.

MSP-1 neurons [4] = assay: AT8 (tau phosphorylation) immunostaining of MSP-1 neurons treated with astrocyte culture medium; assay type: cell-based, mouse
Description: as §2, with “days. On day 5, the cells were exposed to tumor necrosis factor-α (TNF-α, 100 ng/ml, Wako) for 24 hours. For anserine treatment group, the cells were pretreated with L-anserine (Toronto Research Chemicals) for 2 hours prior to the exposure to TNF-α.” for “days.”
as §3, §4

[5] = Stability of anserine (temperature, storage in solution); assay type: physicochemical
[6] = tested on: phosphorylated IKK complex; assay: Phosphorylated IKK immunostaining in TNF-α-treated MSP-1 astrocytes; assay type: cell-based, mouse; conditions: MSP-1 astrocytes treated with TNF-α, addition of anserine; Fig. 6
Description: To obtain differentiated astrocytes, the MSP-1 cells were harvested and cultured overnight in the MSP-1 proliferation medium on new dishes. The next day, the medium was replaced with serum-free DMEM/F12 medium containing N-2 supplement (R&D Systems), leukemia inhibitory factor (LIF, 10 ng/ml, Wako), and ciliary neurotrophic factor (CNTF, 10 ng/ml, Wako). This medium was referred to as astrocyte differentiation medium. The culture medium was replaced with fresh medium every 2 or 3 days. On day 5, the cells were exposed to tumor necrosis factor-α (TNF-α, 100 ng/ml, Wako) for 24 hours. For anserine treatment group, the cells were pretreated with L-anserine (Toronto Research Chemicals) for 2 hours prior to the exposure to TNF-α. To obtain differentiated neurons, the culture medium for MSP-1 cells was replaced with the serum-free DMEM/F12 medium containing N-2 supplement. This medium was referred to as neuron differentiation medium. The culture medium was replaced with fresh medium every 2 days. On day 5, the cells were treated for 24 hours with the culture supernatant of the astrocytes induced from MSP-1 cells. […]
as §3

phospho-NF-κB = assay: Immunostaining of phospho-NF-κB (P-P65) in TNF-α-treated MSP-1 astrocytes; assay type: cell-based, mouse
Description: The harvested MSP-1 cells were cultured in the MSP-1 differentiation medium on poly-L-lysine/fibronectin-coated chamber glass (4-well, Watson) and differentiated into astrocytes. After the TNF-α treatment, the cells were fixed with 4% PFA for 10 minutes and washed with TBS for 10 minutes. Subsequently, the cells were blocked with 5% BSA diluted in 0.05% TBS-X at room temperature for 60 minutes, then incubated overnight at 4°C in a blocking solution containing primary antibodies. The primary antibodies used in this study were anti-GFAP (mouse, 1:1000, Sigma), anti-NeuN (mouse, 1:1000, Millipore), anti-NF-κB p65 (rabbit, 1:500, CST), and anti-P-MLKL (rabbit, 1:2000, Abcam). […]
as §3, §4

[7] = tested on: MSP-1 cells differentiated into astrocytes; assay: RNA sequencing (DEG, GO/KEGG, GSEA) of TNF-α-treated MSP-1 astrocytes; assay type: cell-based, mouse
Description: as §1
The MSP-1 cells differentiated into astrocytes were harvested by trypsin treatment, and total RNA was isolated using the RNeasy Mini Kit (Qiagen). Samples (10 ng input) were pretreated using the SMART-seq Stranded Kit (Takara, Japan). Sequencing was performed using Illumina NovaSeq 6000 (Illumina, USA).
Gene expression levels were assessed by using transcripts per million (TPM) data, and differentially expressed genes (DEGs) were identified using the DESeq2 package in the R environment. Genes with p-values less than 0.05 were considered DEGs. […] Gene set enrichment analysis (GSEA) was performed based on the TPM data.
On day 5, TNF-α (100 ng/ml) was added to the MSP-1 cells differentiated into astrocytes, and the cells were treated for 24 hours. In the TNF-α + anserine group, 10 µM anserine was added to the culture medium 2 hours prior to the TNF-α treatment. These cells were harvested, and RNA sequencing (RNA-seq) analysis was performed to examine the expressed genes. […] Necroptosis-promoting factors such as C3, Ccl2, Ccl7, and Cxcl1 increased after the TNF-α treatment and decreased in the TNF-α + anserine group.
To obtain differentiated astrocytes, the MSP-1 cells were harvested and cultured overnight in the MSP-1 proliferation medium on new dishes. The next day, the medium was replaced with serum-free DMEM/F12 medium containing N-2 supplement (R&D Systems), leukemia inhibitory factor (LIF, 10 ng/ml, Wako), and ciliary neurotrophic factor (CNTF, 10 ng/ml, Wako). This medium was referred to as astrocyte differentiation medium. The culture medium was replaced with fresh medium every 2 or 3 days. On day 5, the cells were exposed to tumor necrosis factor-α (TNF-α, 100 ng/ml, Wako) for 24 hours. For anserine treatment group, the cells were pretreated with L-anserine (Toronto Research Chemicals) for 2 hours prior to the exposure to TNF-α. To obtain differentiated neurons, the culture medium for MSP-1 cells was replaced with the serum-free DMEM/F12 medium containing N-2 supplement. This medium was referred to as neuron differentiation medium. The culture medium was replaced with fresh medium every 2 days. On day 5, the cells were treated for 24 hours with the culture supernatant of the astrocytes induced from MSP-1 cells. Nec-1 and the C3aR antagonist (SB290157) were purchased from Selleck.
Total RNA was isolated from isolated astrocytes and astrocytes differentiated from MSP-1 cells using RNeasy Mini Kit (Qiagen). RNA samples in an amount of 1 ng (isolated astrocytes) or 10 ng (cultured astrocytes) were pretreated using the SMART-seq Stranded Kit (Takara Bio, Japan). Sequencing was performed using Illumina NovaSeq 6000 (Illumina, USA). Gene expression levels were evaluated using transcripts per million (TPM) data, and differentially expressed genes (DEGs) were identified using the DESeq2 package in the R environment. […]

[8] = tested on: male albino rats with experimentally induced sepsis; conditions: carnosine 25 mg/kg and 50 mg/kg for 30 days; cited from earlier work
[9] = Example 2, MSP-1 astrocytes pretreated with anserine before TNF-α, Fig. 5A
[10] = 10 µM anserine 2 hours prior to TNF-α 100 ng/ml, 24 hours, versus TNF-α group
[11] = 10 µM anserine added 2 hours prior to TNF-α (100 ng/ml, 24 hours), RNA-seq

## N=C(N)NCCCC(NC(=O)COCC(c1ccccc1)c1ccccc1)C(=O)O (centres unmarked) [C3aR antagonist, reference compound]
MSP-1 neurons [1]; MSP-1 neurons treated with TNF CM plus C3aRA (10 µM), Fig. 4
  p-MLKL intensity: decreased significantly

## CN1C(=O)C(Cc2c[nH]c3ccccc23)NC1=S (centres unmarked) [Nec-1, necrostatin-1, reference compound]
MSP-1 neurons [1]; MSP-1 neurons treated with TNF CM plus Nec 1 (30 µM), Fig. 4
  p-MLKL intensity: decreased significantly to the same level

## Cn1cncc1C[C@H](NC(=O)CCN)C(=O)O [anserine, (2S)-2-[(3-amino-1-oxopropyl)amino]-3-(3-methyl-4-imidazolyl)propanoic acid]
[2]; [9]
  expressions of inflammatory factors such as C3: decreased
[2]; anserine treatment group versus TNF-α treatment group, Fig. 2D
  expressions of C3, Ccl2, Cxcl1, and iNOS (real-time PCR): significantly decreased
MSP-1 neurons [3]
  intensity of P-RIPK1: significant decrease
MSP-1 neurons [4]; MSP-1 neurons treated with anserine CM
  intensity of AT8: significant decrease
MSP-1 neurons [4]; MSP-1 neurons treated with culture medium from TNF-α + anserine group (anserine CM), Fig. 4
  tau-phosphorylation (p-tau expression, AT-8 staining): did not exhibit such p-tau expression
[5]; in solution
  stable storage in solution (duration): at least two years and nine months
[5]; room temperature, 180°C or lower
  stability at room temperature and under conditions of 180°C or lower: sufficiently stable
[6]
  expression of the phosphorylated IKK complex: reduced
MSP-1 neurons [1]; MSP-1 neurons treated with anserine CM, Fig. 4
  intensity of P-MLKL: significant decrease
MSP-1 neurons [1]; culture supernatant containing 10 mM anserine in addition to TNF-α, compared with sham group, Fig. 3
  necroptosis of MSP-1 neurons (expression of P-MLKL in necrosomes): suppressed to a degree comparable to that observed with untreated culture supernatant (sham group)
phospho-NF-κB; [9]
  NF-κB activity: reduced
phospho-NF-κB; anserine treatment, TNF-α-induced MSP-1 astrocytes, Figs. 2B and 2C
  expression of phospho-NF-κB: reduced
[7]; [10]
  Mfge8 (milk fat globule-EGF factor 8) expression (RNA-seq): increased
  Necroptosis-promoting factors such as C3, Ccl2, Ccl7, and Cxcl1 (expression, RNA-seq): decreased
[7]; [11]
  DEGs down-regulated, TNF-α + anserine vs TNF-α treatment group: 169
  DEGs up-regulated, TNF-α + anserine vs TNF-α treatment group: 159
  differentially expressed genes (DEGs) in the TNF-α + anserine treatment group in comparison with the TNF-α treatment group: 328
[7]; [9]
  complement activation: reduced
[7]; TNF-α + anserine group
  expression of gene groups involved in necroptosis induction (chemokine signaling pathway, response to cytokine, immune response, TNF signaling-related genes), GO and KEGG analyses: significant decrease in expression
[7]; TNF-α + anserine group versus TNF-α group
  expressions of inflammation-related genes, chemokine pathway, and complement activation pathway (GSEA): decreased

## NCCC(=O)N[C@@H](Cc1cnc[nH]1)C(=O)O [carnosine]
[8]
  IL-β, TNF-α, and MIF: reduced
  expression of IκBα: increased
  increased expression of p65 and p-IKKα/β (Ser 180/Ser 181): suppressed
  lipid peroxidation and other antioxidant enzymes: significantly normalized
